How the values were obtained:
[1] = Determination of intrinsic dissolution (European Pharmacopeia Ed. 7.0, 2.9.3); type: physicochemical; details: for Intrinsic dissolution: powder of Example 5, Eur. Pharm. 7.0, 2.9.3
Procedure: The determination of the intrinsic dissolution of the powder, which was obtained according to what is described in Example 5, was carried out according to European Pharmacopeia Ed. 7.0, 2010, 2.9.3, page 256, (the disclosure of which is incorporated herein by reference in its entirety), comparing the new crystal of rifaximin τ and amorphous rifaximin and rifaximin polymorph β.

[2] = Dissolution rate at neutral pH (phosphate buffer pH 6.8); type: physicochemical; details: for Concentration: 500 mg in 750 ml phosphate buffer pH 6.8, 30°C, 250 rpm
Procedure: An amount of 500 mg of rifaximin τ, 500 mg of rifaximin polymorph α, and 500 mg of amorphous rifaximin were suspended, respectively, in 750 ml of phosphate buffer at pH 6.8 at a temperature of 30±0.5° C. The solutions were stirred for 120 minutes at a stirring rate of 250 rpm. Samples with equal volume were taken at fixed time intervals, filtered and analyzed by spectrophotometer at a wavelength of 430 nm. The rifaximin concentration in the samples was calculated compared to a solution having a known concentration.

[3] = PK / bioavailability study on dogs; type: in vivo, Beagle male dogs; details: single oral capsule 100 mg/kg, plasma; for tmax: median values
Procedure: A bioavailability study of rifaximin τ in comparison with rifaximin amorphous and rifaximin polymorph alpha has been carried out on 4 Beagle male dogs, by feeding them a dose of 100 mg/kg of one of the polymorphs or amorphous form. Each animal received a single oral capsule of rifaximin τ, amorphous rifaximin, and rifaximin α with a washout period of seven days between the administration of each form to the same animal. Doses were administered with a […] gelatine capsule followed by 10 ml of drinking water.
Blood was taken at 6 time points up to 24 hours post dose and it was collected into tubes containing lithium heparin anticoagulant.
The plasma has been assayed for rifaximin on the validated LC-MS/MS (Liquid Chromatography-Mass Spectrometry/Mass Spectrometry) method and the maximum plasma concentration observed (Cmax), the time to reach the (Cmax), (tmax), and the area under the concentration-time curve (AUC) have been calculated.

[4] = per oral route; cited from earlier work
[5] = Stability in different humidity environments (XRPD); type: physicochemical; details: for Stability of crystal form (XRPD pattern after exposure): 10 days; for Stability on exposure to humidity: humidity levels about 10% to about 90%, about 1 hour to about 10 days
Excerpt: a) The rifaximin τ obtained according to Example 1 was exposed at room temperature to a humidity level of 11%, obtained by means of a saturated solution of LiCl, for a period of time of 10 days.
b) Another crystal of rifaximin τ was exposed to a humidity level of 84%, obtained with a supersaturated aqueous solution of KCl for 10 days.

Row | Structure (SMILES) | Intrinsic dissolution [1] [mg/min/cm^2] | Concentration ([2]; 5 min) [ng/mL] | Concentration ([2]; 15 min) [ng/mL] | Concentration ([2]; 30 min) | Concentration ([2]; 60 min) [ng/mL] | Concentration ([2]; 120 min) [ng/mL] | AUC 0-8h [3] [ng·h/mL] | AUC 0-tlast [3] [ng·h/mL] | Cmax [3] [ng/mL] | tmax [3] [h] | also measured
1 | CO[C@H]1/C=C/O[C@@]2(C)Oc3c(C)c(O)c4c(O)c(c5c(nc6cc(C)ccn65)c4c3C2=O)NC(=O)/C(C)=C\C=C\[C@H](C)[C@H](O)[C@@H](C)[C@@H](O)[C@@H](C)[C@H](OC(C)=O)[C@@H]1C [Amorphous rifaximin, rifaximin] | 0.131 | 14400 | 44000 | 28700 ng/mL | 11000 | 9100 | 1318.02 ± 1975.04 | 2337.16 ± 3223.76 | 279.79 ± 378.41 | 3 | Effect of added DEGME on measured dissolved rifaximin ([1]; addition of 0.1 ml and 1.25 ml DEGME to the solution contacting the tablet): does not change the measured value of the dissolved rifaximin
2 | CCOCCOCCO [DEGME, 2-(2-ethoxyethoxy)ethanol] | – | – | – | – | – | – | – | – | – | – | NOAEL (No Observed Adverse Effect Level) [4]: higher than 160 mg/kg of body mass
3 | CO[C@H]1/C=C/O[C@@]2(C)Oc3c(C)c(O)c4c(O)c(c5c(nc6cc(C)ccn65)c4c3C2=O)NC(=O)/C(C)=C\C=C\[C@H](C)[C@H](O)[C@@H](C)[C@@H](O)[C@@H](C)[C@H](OC(C)=O)[C@@H]1C [Rifaximin polymorph β, rifaximin] | 0.016 | – | – | – | – | – | – | – | – | – | –

Now from value to compound, other results behind:

Row | Intrinsic dissolution [1] [mg/min/cm^2] | Concentration ([2]; 5 min) [ng/mL] | Concentration ([2]; 15 min) [ng/mL] | Concentration ([2]; 30 min) | Concentration ([2]; 60 min) [ng/mL] | Concentration ([2]; 120 min) [ng/mL] | AUC 0-8h [3] [ng·h/mL] | AUC 0-tlast [3] [ng·h/mL] | Cmax [3] [ng/mL] | tmax [3] [h] | Structure (SMILES) | also measured
4 | – | 1050 | 3260 | 4230 ng/mL | 4120 | 3890 | 7.20 ± 4.00 | 16.86 ± 13.99 | 2.84 ± 1.26 | 1 | CO[C@H]1/C=C/O[C@@]2(C)Oc3c(C)c(O)c4c(O)c(c5c(nc6cc(C)ccn65)c4c3C2=O)NC(=O)/C(C)=C\C=C\[C@H](C)[C@H](O)[C@@H](C)[C@@H](O)[C@@H](C)[C@H](OC(C)=O)[C@@H]1C [Rifaximin α, rifaximin] | –
5 | – | 21680 | 57680 | higher than 90 μg/ml | 43140 | 14930 | – | – | – | – | CO[C@H]1/C=C/O[C@@]2(C)Oc3c(C)c(O)c4c(O)c(c5c(nc6cc(C)ccn65)c4c3C2=O)NC(=O)/C(C)=C\C=C\[C@H](C)[C@H](O)[C@@H](C)[C@@H](O)[C@@H](C)[C@H](OC(C)=O)[C@@H]1C [Rifaximin τ, rifaximin] | Concentration relative to rifaximin polymorph α ([2]; aqueous solution): about 25 times; Concentration relative to amorphous rifaximin ([2]; pH 6.8, after about 30 minutes): about five times higher; Concentration relative to rifaximin polymorph α or β ([2]; pH 6.8, after about 30 minutes): about twenty times higher; AUC 0-8h ([3]; listed as rifaximin τ): 0 to 35 ng·h/mL; AUC 0-tlast ([3]; listed as rifaximin τ): 20 to 325 ng·h/mL; Cmax ([3]; listed as rifaximin τ): 0 to 35 ng/mL; AUC 0-8h ([3]; listed as τ): 19.93 ± 10.25 ng·h/mL; AUC 0-tlast ([3]; listed as τ): 150.54 ± 172.55 ng·h/mL; Cmax ([3]; listed as τ): 15.70 ± 18.63 ng/mL; tmax ([3]; listed as rifaximin τ): 3 to 7 h; tmax ([3]; listed as τ): 5 h; Stability of crystal form (XRPD pattern after exposure) ([5]; humidity level 11% (saturated LiCl), room temperature): correspond to the X-ray diffraction pattern of FIG. 1; Stability of crystal form (XRPD pattern after exposure) ([5]; humidity level 84% (supersaturated KCl)): correspond to the X-ray diffraction pattern of FIG. 1; Stability on exposure to humidity [5]: does not alter its chemical structure; Stability on exposure to humidity ([5]; listed as rifaximin τ): does not transform its crystallographic parameters and X-ray diffractogram
